For experiment [1], the target named is T1, Muscarinic acetylcholine receptor M4 (Homo sapiens, UniProt P08173).
T1 sequence (P08173 whole entry): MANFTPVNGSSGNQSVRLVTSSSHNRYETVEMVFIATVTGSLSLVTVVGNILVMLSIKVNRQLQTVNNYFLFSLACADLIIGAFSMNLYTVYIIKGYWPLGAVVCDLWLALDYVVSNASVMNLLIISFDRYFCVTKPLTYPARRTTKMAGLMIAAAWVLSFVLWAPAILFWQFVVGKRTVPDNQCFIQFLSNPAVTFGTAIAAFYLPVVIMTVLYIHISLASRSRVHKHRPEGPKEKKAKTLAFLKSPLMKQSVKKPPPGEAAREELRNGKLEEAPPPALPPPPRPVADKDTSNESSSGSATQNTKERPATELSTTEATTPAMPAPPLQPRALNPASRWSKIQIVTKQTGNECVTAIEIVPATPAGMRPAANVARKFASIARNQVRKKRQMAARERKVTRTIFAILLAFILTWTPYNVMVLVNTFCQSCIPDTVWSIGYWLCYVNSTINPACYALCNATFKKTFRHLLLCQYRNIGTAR

Experiment [2] deals with T2, Nuclear receptor subfamily 1 group I member 3 (Homo sapiens, UniProt Q14994).
T2 sequence (Q14994 whole entry): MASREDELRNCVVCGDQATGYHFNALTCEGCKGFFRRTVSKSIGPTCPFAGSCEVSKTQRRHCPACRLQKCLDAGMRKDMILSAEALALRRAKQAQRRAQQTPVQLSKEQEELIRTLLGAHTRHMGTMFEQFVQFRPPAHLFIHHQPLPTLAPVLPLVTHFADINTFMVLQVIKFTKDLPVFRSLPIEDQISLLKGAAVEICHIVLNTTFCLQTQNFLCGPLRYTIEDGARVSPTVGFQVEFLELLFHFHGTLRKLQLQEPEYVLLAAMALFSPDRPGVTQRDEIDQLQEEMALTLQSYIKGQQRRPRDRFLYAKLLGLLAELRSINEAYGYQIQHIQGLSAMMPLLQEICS
It is filed as functional.

The target in a further experiment is T3, Substance-K receptor (Homo sapiens, UniProt P21452).
T3 sequence (P21452 whole entry): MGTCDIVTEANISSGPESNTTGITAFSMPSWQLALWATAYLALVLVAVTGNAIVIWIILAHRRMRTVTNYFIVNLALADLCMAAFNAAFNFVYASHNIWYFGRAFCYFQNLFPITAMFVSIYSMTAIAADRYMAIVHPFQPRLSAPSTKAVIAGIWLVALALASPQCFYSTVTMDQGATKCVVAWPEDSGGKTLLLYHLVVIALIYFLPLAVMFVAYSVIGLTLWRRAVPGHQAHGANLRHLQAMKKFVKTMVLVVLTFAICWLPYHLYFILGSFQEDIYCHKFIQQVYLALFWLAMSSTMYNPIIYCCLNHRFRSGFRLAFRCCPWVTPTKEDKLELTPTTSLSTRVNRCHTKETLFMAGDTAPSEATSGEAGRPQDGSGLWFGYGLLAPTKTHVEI

Experiment [3] addresses T4, Muscarinic acetylcholine receptor M1 (Homo sapiens, UniProt P11229).
T4 sequence (P11229 whole entry): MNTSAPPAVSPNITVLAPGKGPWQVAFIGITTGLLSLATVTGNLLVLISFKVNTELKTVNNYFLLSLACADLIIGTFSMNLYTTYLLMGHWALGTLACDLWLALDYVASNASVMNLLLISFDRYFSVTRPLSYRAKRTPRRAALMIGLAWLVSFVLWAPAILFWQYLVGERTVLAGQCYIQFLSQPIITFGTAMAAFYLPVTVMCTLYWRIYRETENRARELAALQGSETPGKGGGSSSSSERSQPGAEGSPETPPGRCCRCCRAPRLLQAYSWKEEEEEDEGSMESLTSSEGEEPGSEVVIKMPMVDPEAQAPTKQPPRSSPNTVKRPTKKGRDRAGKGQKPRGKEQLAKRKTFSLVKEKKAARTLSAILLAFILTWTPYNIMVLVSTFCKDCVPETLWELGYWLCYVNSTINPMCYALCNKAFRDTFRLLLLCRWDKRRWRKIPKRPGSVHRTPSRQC

Experiment [4] addresses T5, Androgen receptor (Rattus norvegicus, UniProt P15207).
T5 sequence (P15207 whole entry): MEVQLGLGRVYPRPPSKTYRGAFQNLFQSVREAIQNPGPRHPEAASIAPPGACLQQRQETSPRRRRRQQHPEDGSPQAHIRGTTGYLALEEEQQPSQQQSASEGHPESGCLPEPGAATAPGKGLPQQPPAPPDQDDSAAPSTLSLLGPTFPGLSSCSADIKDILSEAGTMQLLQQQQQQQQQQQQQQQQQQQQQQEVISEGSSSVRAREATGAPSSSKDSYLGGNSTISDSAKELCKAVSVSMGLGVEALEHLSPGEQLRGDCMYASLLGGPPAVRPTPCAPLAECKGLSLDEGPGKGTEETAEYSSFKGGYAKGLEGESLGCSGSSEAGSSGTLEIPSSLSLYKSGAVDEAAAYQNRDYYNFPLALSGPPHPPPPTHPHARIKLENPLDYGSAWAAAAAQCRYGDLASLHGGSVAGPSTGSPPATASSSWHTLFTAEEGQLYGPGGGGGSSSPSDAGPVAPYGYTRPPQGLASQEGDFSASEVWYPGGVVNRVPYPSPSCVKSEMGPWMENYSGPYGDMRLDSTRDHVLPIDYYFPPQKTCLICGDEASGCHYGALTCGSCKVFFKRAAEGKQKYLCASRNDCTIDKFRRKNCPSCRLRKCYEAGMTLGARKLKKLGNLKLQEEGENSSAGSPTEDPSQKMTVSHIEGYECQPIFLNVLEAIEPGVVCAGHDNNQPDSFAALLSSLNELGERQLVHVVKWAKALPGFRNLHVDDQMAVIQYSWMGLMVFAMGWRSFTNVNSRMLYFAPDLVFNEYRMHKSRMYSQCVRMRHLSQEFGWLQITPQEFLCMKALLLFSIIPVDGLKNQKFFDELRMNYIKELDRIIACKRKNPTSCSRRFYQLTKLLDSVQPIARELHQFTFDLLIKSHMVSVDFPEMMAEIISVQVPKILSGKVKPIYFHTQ
It is filed as functional.

The target in experiment [5] is T5, Androgen receptor. It is filed as functional. The source holds these as a separate data set.

The structures appear in SMILES notation.
Further: assay procedure not described here.

As a reminder, the AC50 is the concentration giving half of the maximal activity seen. A high value points to activity only at high concentration. As to `O=C(O)Cc1ccccc1Nc1c(Cl)cccc1Cl` [DICLOFENAC], the AC50 in experiment [1] was greater than 10 µM; in experiment [2], 23 µM; on Substance-K receptor it was greater than 10 µM. `Cc1nc(Nc2ncc(C(=O)Nc3c(C)cccc3Cl)s2)cc(N2CCN(CCO)CC2)n1` [DASATINIB]: the concentration at half-maximal activity (AC50) (in experiment [1]; on Substance-K receptor) was greater than 10 µM in each case. Compound `CC(C)NC(=N)NC(=N)Nc1ccc(Cl)c(Cl)c1` [CHLORPROGUANIL] returned a concentration at half-maximal activity (AC50) in experiment [3] greater than 30 µM. Turning to `CN(CCOc1ccc(CC2SC(=O)NC2=O)cc1)c1ccccn1` (stereo not given) [ROSIGLITAZONE], the half-maximal activity concentration (AC50) in experiment [2] is 18 µM. In other words, the double-digit micromolar range. On to `CC(C(=O)O)c1ccc2oc(-c3ccc(Cl)cc3)nc2c1` (stereo not given) [BENOXAPROFEN], for which the AC50 at Androgen receptor [4] and at Androgen receptor [5] was greater than 30 µM throughout. Take `CCOc1nc2cccc(C(=O)O)c2n1Cc1ccc(-c2ccccc2-c2nnn[nH]2)cc1`: the AC50 was greater than 30 µM on Androgen receptor [4], greater than 10 µM in experiment [1] and greater than 10 µM at Substance-K receptor. With `COc1ccccc1OC1(C)OC(=O)c2ccccc2O1` (stereo not given) [GUAIMESAL], the AC50 at Androgen receptor [4] and on Androgen receptor [5] was greater than 30 µM in each case.

As for `CCC(=O)O[C@]1(C(=O)CCl)[C@@H](C)C[C@H]2[C@@H]3CCC4=CC(=O)C=C[C@]4(C)[C@@]3(F)[C@@H](O)C[C@@]21C` [CLOBETASOL PROPIONATE], the results for the concentration at half-maximal activity (AC50) on Androgen receptor [4] and at Androgen receptor [5] were greater than 30 µM and 27 µM, respectively. The compound `COc1cc(C(=O)NS(=O)(=O)c2ccccc2C)ccc1Cc1cn(C)c2ccc(NC(=O)OC3CCCC3)cc12` [ZAFIRLUKAST] yielded an AC50 in experiment [2] of 4 µM. For `CCOc1cc([C@@H](CS(C)(=O)=O)N2C(=O)c3cccc(NC(C)=O)c3C2=O)ccc1OC`, the AC50 on Androgen receptor [4] is greater than 30 µM. For `C#C[C@]1(O)C=C[C@H]2[C@@H]3CCC4=CC(=O)CC[C@@H]4[C@H]3CC[C@@]21CC` [GESTODENE], the AC50 in experiment [3] was greater than 30 µM. On the same count and under the same terms, the same measure for `CN[C@@H]1[C@H](O[C@H]2[C@H](O[C@H]3[C@H](O)[C@@H](O)[C@H](NC(=N)N)[C@@H](O)[C@@H]3NC(=N)N)O[C@@H](C)[C@]2(O)CO)O[C@@H](CO)[C@H](O)[C@H]1O` [DIHYDROSTREPTOMYCIN]: greater than 30 µM.

The values above are taken from ChEMBL document CHEMBL5291721, “A preclinical secondary pharmacology resource illuminates target-adverse drug reaction associations of marketed drugs” (Nat Commun, 2023).
